# Data: publication PMC8534003, “The Chemokine-Based Peptide, CXCL9(74-103), Inhibits Angiogenesis by Blocking Heparan Sulfate Proteoglycan-Mediated Signaling of Multiple Endothelial Growth Factors” (Cancers, 2021)
# “Also recorded” adds a separate entry of the source.
# Experiments:
# [1] = tested on: diabetes-induced vascular permeability, Sprague-Dawley rats; experiment: Retinal vascular permeability in streptozotocin-induced diabetic rats; type: in vivo, rat; conditions: intravitreal, equimolar CXCL9(74-103) 30 µg or CXCL9(86-103) 18 µg, two weeks, n = 12–15
# Experimental: Male Sprague-Dawley rats (210–240 g) were fasted overnight and injected intraperitoneally (i.p.) with streptozotocin (55 mg/kg body weight, dissolved in citrate buffer, pH 4.5) to induce diabetes. After 3 days, the animals were anesthetized, diabetes was confirmed and the vitreous of the right eye was injected with equimolar amounts of CXCL9(74-103) (30 µg), CXCL9(86-103) (18 µg) or PBS (5 µL/injection). Diabetes-induced breakdown of the blood-retinal barrier as a consequence of increased vascular permeability was evaluated in retinas two weeks after streptozotocin injection, as previously described. Briefly, 30 min prior to sacrifice, fluorescein isothiocyanate (FITC)-conjugated dextran of 3-5 kDa (Sigma-Aldrich) was intravenously (i.v.) injected. After collection of a blood sample, rats were perfused with PBS. The retinas were excised, weighed and homogenized. The fluorescence in the retina lysates was measured using a SpectraMax® Gemini™ XPS system. For normalization of the data, the following equation was used to express the obtained results: Retinal FITC-dextran (µg)/retinal weight (g) Plasma FITC-dextran concentration (µg/µL) × circulation time (h)
# phospho-ERK1/2 = experiment: Signal transduction assay, VEGF165-induced ERK phosphorylation in MECs (ELISA); type: cell-based, mouse; conditions: murine VEGF165 5 ng/mL 5 min, peptide 1 µM, n ≥ 3
# Experimental: HMVECs and MECs were seeded in 6-well plates at 1.25 × 10^5 cells/well in their respective culture medium. Once the cell density reached 70–80% confluency, the cells were starved in serum-free medium overnight. Fifteen minutes prior to stimulation, cells were incubated with various concentrations of CXCL9(74-103) or CXCL9(86-103) in 0.5% (v/v) BSA in MCDB131 or DMEM medium (assay medium for HMVECs and MECs, respectively) at 37 °C. HMVECs and MECs were stimulated with assay medium alone or supplemented with 10 ng/mL EGF or 5 ng/mL murine VEGF165 at 37 °C for 15 or 5 min, respectively. Then, the cells were placed on ice, washed with ice-cold PBS and 90 µL of lysis buffer [1% (v/v) protease inhibitor cocktail, phosphatase inhibitor cocktail 2 and 3 (all Sigma-Aldrich) in 1 mM ethylenediaminetetraacetic acid (EDTA), 0.5% (v/v) Triton™ X-100, 5 mM NaF, 6 M urea in PBS] was added per well. […] The amount of phospho-ERK1/2 in the cell lysates was determined using an ERK1 (Thr202/Tyr204)/ERK2 (Thr185/Tyr187) ELISA duoset (R&D Systems) according to the manufacturer’s instructions. The amount of phosphorylated ERK was normalized to the total protein content in the samples measured by the Pierce™ bicinchoninic acid (BCA) protein assay kit (Thermo Fisher Scientific).
# [2] = tested on: human microvascular endothelial cells (HMVECs); experiment: Endothelial cell proliferation assay (MTT or ATP lite); type: cell-based; conditions: peptide 3 µM, 3 to 4 days, HMVECs, 1% FCS, mean ± SEM, n ≥ 4
# Experimental: The ability of the CXCL9-derived peptides to inhibit growth factor-induced proliferation of endothelial cells was assessed. HMVECs were seeded at 5 × 10^3 cells/well in EBM™-2 medium containing 1% (v/v) FCS (proliferation medium). After settling of the cells, they were stimulated with EGF, VEGF165 (both 5 ng/mL) or FGF-2 (3 ng/mL) as a single stimulus or in combination with CXCL9(86-103) or CXCL9(74-103) at 0.3 or 3 µM in proliferation medium or left untreated. HMVECs were also treated with 0.3 or 3 µM of CXCL9(74-103) or 3 µM of CXCL9(86-103) alone to assess the effect of CXCL9-derived peptide treatment on spontaneous proliferation. After 3 to 4 days, a 3-(4,5-dimethylthiazol-2-yl)-2,5-diphenyl tetrazolium bromide (MTT) or ATP lite assay was performed. The ATP lite assay was performed according to the manufacturer’s instructions (Perkin Elmer, Waltham, MA). When MTT was used as substrate, the medium was replaced with 200 µL of MTT solution (RPMI without phenol red containing 0.4 g/L MTT) and the cells were incubated at 37 °C and 5% CO2 in the dark for 4 hours. Then, the MTT solution was discarded and the formed formazan crystals were dissolved in 200 µL acidic propanol [0.04 M HCl, 0.1% (v/v) NP-40 in isopropanol] under continuous shaking in the dark for 10 min. The optical densities were measured at 570 nm and 630 nm (reference wavelength).
sequence,measurement,setting,value
KKVLKVRKSQRSRQKKTT [CXCL9(86-103)],retinal vascular permeability (FITC-dextran leakage),[1],"tended to decrease the vascular leakage, but this was not significant; also recorded: could not significantly improve diabetes-induced vascular leakage"
same,VEGF165-induced ERK phosphorylation,phospho-ERK1/2,did not result in a reduction of VEGF165-induced ERK phosphorylation
same,EGF-induced proliferation,[2]; EGF 5 ng/mL,could not significantly alter
same,FGF-2-induced proliferation,[2]; FGF-2 3 ng/mL,significantly attenuated
same,VEGF165-induced proliferation,[2]; VEGF165 5 ng/mL,could not significantly alter
